System: 521955-158-R2-J5-PDC complex spheroid growth
Test: Anticancer human tumor 521955-158-R2-J5-PDC patient-derived pancreatic carcinoma cell line growth inhibition [AhR]
Conditions: for IC50: curve of first compound; for viability, T/C: stronger effect = lower value
In short: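 Spheroids combined tumor cells with HUVEC endothelial cells and human MSCs as stroma. AhR antagonists were paired with standard or investigational drugs, each dosed in half-log steps down from near clinical Cmax, or from 10 microM where Cmax was unknown.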

[1] = second compound 0.1 µM, first compound 0.0316 µM
[2] = second compound 0.1 µM, first compound 0.1 µM
[3] = second compound 0.1 µM, first compound 0.316 µM
[4] = second compound 0.1 µM, first compound 1 µM
[5] = second compound 0.1 µM, first compound 3.16 µM
[6] = second compound 0.1 µM, first compound 10 µM
[7] = second compound 0.316 µM, first compound 0.0316 µM
[8] = second compound 0.316 µM, first compound 0.1 µM
[9] = second compound 0.316 µM, first compound 0.316 µM
[10] = second compound 0.316 µM, first compound 1 µM
[11] = second compound 0.316 µM, first compound 3.16 µM
[12] = second compound 0.316 µM, first compound 10 µM
[13] = second compound 1 µM, first compound 0.0316 µM
[14] = second compound 1 µM, first compound 0.1 µM
[15] = second compound 1 µM, first compound 0.316 µM
[16] = second compound 1 µM, first compound 1 µM
[17] = second compound 1 µM, first compound 3.16 µM
[18] = second compound 1 µM, first compound 10 µM
[19] = second compound 3.16 µM, first compound 0.0316 µM
[20] = second compound 3.16 µM, first compound 0.1 µM
[21] = second compound 3.16 µM, first compound 0.316 µM
[22] = second compound 3.16 µM, first compound 1 µM
[23] = second compound 3.16 µM, first compound 3.16 µM
[24] = second compound 3.16 µM, first compound 10 µM
[25] = second compound 10 µM, first compound 0.0316 µM
[26] = second compound 10 µM, first compound 0.1 µM
[27] = second compound 10 µM, first compound 0.316 µM
[28] = second compound 10 µM, first compound 1 µM
[29] = second compound 10 µM, first compound 3.16 µM
[30] = second compound 10 µM, first compound 10 µM
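Wherever viability, T/C is given: spheroids mix tumor cells with HUVEC endothelium and human MSC stroma; luminescence taken as viability surrogate after a week of drug exposure.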

In the case of CC(C)CC(NC(=O)C(Cc1ccccc1)NC(=O)c1cnccn1)B(O)O (stereo not given) + Cc1cncc(-c2nc(NCCc3c[nH]c4ccccc34)c3ncn(C(C)C)c3n2)c1, the IC50 (second compound 0.1 µM) is reported as 0.0165 µM, the IC50 (second compound 0.316 µM) is reported as 0.0167 µM and the IC50 (second compound 1 µM) is reported as 0.0168 µM. It also gave an IC50 (second compound 3.16 µM) of 0.0151 µM, an IC50 (second compound 10 µM) of 0.00644 µM and a viability, T/C (second compound 0.1 µM, first compound 0.000949 µM) of 103%. The viability, T/C (second compound 0.1 µM, first compound 0.003 µM) was 103%, the viability, T/C (second compound 0.1 µM, first compound 0.00949 µM) was 91.8% and the viability, T/C (second compound 0.1 µM, first compound 0.03 µM) was 4.93%. The viability, T/C (second compound 0.1 µM, first compound 0.0949 µM) was 0.17%, the viability, T/C (second compound 0.1 µM, first compound 0.3 µM) was 0.27% and the viability, T/C (second compound 0.316 µM, first compound 0.000949 µM) was 118%. For the same compound, the viability, T/C (second compound 0.316 µM, first compound 0.003 µM) was 92.1%, the viability, T/C (second compound 0.316 µM, first compound 0.00949 µM) was 97.5% and the viability, T/C (second compound 0.316 µM, first compound 0.03 µM) was 0.39%. The viability, T/C (second compound 0.316 µM, first compound 0.0949 µM) was 0.25%, the viability, T/C (second compound 0.316 µM, first compound 0.3 µM) was 0.21% and the viability, T/C (second compound 1 µM, first compound 0.000949 µM) was 107%. For the same compound, the viability, T/C (second compound 1 µM, first compound 0.003 µM) was 128%, the viability, T/C (second compound 1 µM, first compound 0.00949 µM) was 98.2% and the viability, T/C (second compound 1 µM, first compound 0.03 µM) was 1.49%. For the same compound, the viability, T/C (second compound 1 µM, first compound 0.0949 µM) was 2.14%, the viability, T/C (second compound 1 µM, first compound 0.3 µM) was 0.89% and the viability, T/C (second compound 3.16 µM, first compound 0.000949 µM) was 141%. It also gave a viability, T/C (second compound 3.16 µM, first compound 0.003 µM) of 127%, a viability, T/C (second compound 3.16 µM, first compound 0.00949 µM) of 81.7% and a viability, T/C (second compound 3.16 µM, first compound 0.03 µM) of 0.28%. The viability, T/C (second compound 3.16 µM, first compound 0.0949 µM) was 2.97%, the viability, T/C (second compound 3.16 µM, first compound 0.3 µM) was 2.29% and the viability, T/C (second compound 10 µM, first compound 0.000949 µM) was 144%. For the same compound, the viability, T/C (second compound 10 µM, first compound 0.003 µM) was 126%, the viability, T/C (second compound 10 µM, first compound 0.00949 µM) was 11.6% and the viability, T/C (second compound 10 µM, first compound 0.03 µM) was 0.28%. The viability, T/C (second compound 10 µM, first compound 0.0949 µM) was 2.54% and the viability, T/C (second compound 10 µM, first compound 0.3 µM) was 0.26%.
Work on COc1cc(Nc2ncc3c(n2)-c2ccc(Cl)cc2C(c2c(F)cccc2OC)=NC3)ccc1C(=O)O + Cc1cncc(-c2nc(NCCc3c[nH]c4ccccc34)c3ncn(C(C)C)c3n2)c1 yielded an IC50 (second compound 0.1 µM) greater than 10 µM, an IC50 (second compound 0.316 µM) greater than 10 µM and an IC50 (second compound 1 µM) greater than 10 µM. The IC50 (second compound 3.16 µM) was greater than 10 µM, the IC50 (second compound 10 µM) was greater than 10 µM and the viability, T/C [1] was 100%. The viability, T/C [2] was 78.8%, the viability, T/C [3] was 78.8% and the viability, T/C [4] was 72.3%. The viability, T/C [5] was 80.1%, the viability, T/C [6] was 74.2% and the viability, T/C [7] was 99.7%. For the same compound, the viability, T/C [8] was 79.9%, the viability, T/C [9] was 87.1% and the viability, T/C [10] was 73.1%. It also gave a viability, T/C [11] of 68%, a viability, T/C [12] of 60.9% and a viability, T/C [13] of 109%. The viability, T/C [14] was 88.5%, the viability, T/C [15] was 103% and the viability, T/C [16] was 83.2%. It also gave a viability, T/C [17] of 70.7%, a viability, T/C [18] of 70.4% and a viability, T/C [19] of 127%. The viability, T/C [20] was 107%, the viability, T/C [21] was 97.5% and the viability, T/C [22] was 90.8%. For the same compound, the viability, T/C [23] was 83%, the viability, T/C [24] was 76.7% and the viability, T/C [25] was 125%. For the same compound, the viability, T/C [26] was 88.4%, the viability, T/C [27] was 76.2% and the viability, T/C [28] was 84.3%. The viability, T/C [29] was 62.8% and the viability, T/C [30] was 81.3%.
In the case of Cn1ncnc1C1c2n[nH]c(=O)c3cc(F)cc(c23)NC1c1ccc(F)cc1 (stereo not given) + Cc1cncc(-c2nc(NCCc3c[nH]c4ccccc34)c3ncn(C(C)C)c3n2)c1, the IC50 (second compound 0.1 µM) is reported as greater than 0.1 µM, the IC50 (second compound 0.316 µM) is reported as greater than 0.1 µM and the IC50 (second compound 1 µM) is reported as greater than 0.1 µM. For the same compound, the IC50 (second compound 3.16 µM) was greater than 0.1 µM, the IC50 (second compound 10 µM) was greater than 0.1 µM and the viability, T/C (second compound 0.1 µM, first compound 0.000316 µM) was 114%. The viability, T/C (second compound 0.1 µM, first compound 0.001 µM) was 106%, the viability, T/C (second compound 0.1 µM, first compound 0.00316 µM) was 94.6% and the viability, T/C (second compound 0.1 µM, first compound 0.01 µM) was 109%. For the same compound, the viability, T/C [1] was 93%, the viability, T/C [2] was 83% and the viability, T/C (second compound 0.316 µM, first compound 0.000316 µM) was 105%. For the same compound, the viability, T/C (second compound 0.316 µM, first compound 0.001 µM) was 121%, the viability, T/C (second compound 0.316 µM, first compound 0.00316 µM) was 93.3% and the viability, T/C (second compound 0.316 µM, first compound 0.01 µM) was 110%. It also gave a viability, T/C [7] of 87.6%, a viability, T/C [8] of 101% and a viability, T/C (second compound 1 µM, first compound 0.000316 µM) of 122%. For the same compound, the viability, T/C (second compound 1 µM, first compound 0.001 µM) was 117%, the viability, T/C (second compound 1 µM, first compound 0.00316 µM) was 116% and the viability, T/C (second compound 1 µM, first compound 0.01 µM) was 127%. The viability, T/C [13] was 116%, the viability, T/C [14] was 99.5% and the viability, T/C (second compound 3.16 µM, first compound 0.000316 µM) was 114%. It also gave a viability, T/C (second compound 3.16 µM, first compound 0.001 µM) of 142%, a viability, T/C (second compound 3.16 µM, first compound 0.00316 µM) of 115% and a viability, T/C (second compound 3.16 µM, first compound 0.01 µM) of 119%. The viability, T/C [19] was 122%, the viability, T/C [20] was 107% and the viability, T/C (second compound 10 µM, first compound 0.000316 µM) was 134%. For the same compound, the viability, T/C (second compound 10 µM, first compound 0.001 µM) was 143%, the viability, T/C (second compound 10 µM, first compound 0.00316 µM) was 106% and the viability, T/C (second compound 10 µM, first compound 0.01 µM) was 105%. The viability, T/C [25] was 111% and the viability, T/C [26] was 104%.
In the case of NS(=O)(=O)OCC1CC(n2ccc3c(NC4CCc5ccccc54)ncnc32)CC1O (stereo not given) + Cc1cncc(-c2nc(NCCc3c[nH]c4ccccc34)c3ncn(C(C)C)c3n2)c1, the IC50 (second compound 0.1 µM) is reported as 0.968 µM, the IC50 (second compound 0.316 µM) is reported as 1.17 µM and the IC50 (second compound 1 µM) is reported as 1.25 µM. It also gave an IC50 (second compound 3.16 µM) of 1.24 µM, an IC50 (second compound 10 µM) of 0.0683 µM and a viability, T/C [1] of 106%. For the same compound, the viability, T/C [2] was 103%, the viability, T/C [3] was 80.1% and the viability, T/C [4] was 47.9%. The viability, T/C [5] was 40.1%, the viability, T/C [6] was 30.1% and the viability, T/C [7] was 105%. The viability, T/C [8] was 102%, the viability, T/C [9] was 78.5% and the viability, T/C [10] was 53.4%. For the same compound, the viability, T/C [11] was 35.6%, the viability, T/C [12] was 30.4% and the viability, T/C [13] was 115%. The viability, T/C [14] was 105%, the viability, T/C [15] was 83.7% and the viability, T/C [16] was 52.1%. For the same compound, the viability, T/C [17] was 38%, the viability, T/C [18] was 32.1% and the viability, T/C [19] was 99.4%. It also gave a viability, T/C [20] of 102%, a viability, T/C [21] of 75.2% and a viability, T/C [22] of 52.6%. For the same compound, the viability, T/C [23] was 45%, the viability, T/C [24] was 35.2% and the viability, T/C [25] was 65.5%. It also gave a viability, T/C [26] of 40.6%, a viability, T/C [27] of 34.4% and a viability, T/C [28] of 32.7%. The viability, T/C [29] was 28.7% and the viability, T/C [30] was 23.9%.
O=C(C=Cc1cccc(S(=O)(=O)Nc2ccccc2)c1)NO + Cc1cncc(-c2nc(NCCc3c[nH]c4ccccc34)c3ncn(C(C)C)c3n2)c1 showed an IC50 (second compound 0.1 µM) of 5.89 µM, an IC50 (second compound 0.316 µM) of 6.86 µM and an IC50 (second compound 1 µM) greater than 10 µM. For the same compound, the IC50 (second compound 3.16 µM) was 6.64 µM, the IC50 (second compound 10 µM) was 1.73 µM and the viability, T/C [1] was 119%. The viability, T/C [2] was 115%, the viability, T/C [3] was 138% and the viability, T/C [4] was 93.6%. The viability, T/C [5] was 63.7%, the viability, T/C [6] was 39.8% and the viability, T/C [7] was 131%. The viability, T/C [8] was 129%, the viability, T/C [9] was 125% and the viability, T/C [10] was 101%. For the same compound, the viability, T/C [11] was 66.5%, the viability, T/C [12] was 42% and the viability, T/C [13] was 146%. For the same compound, the viability, T/C [14] was 132%, the viability, T/C [15] was 137% and the viability, T/C [16] was 108%. For the same compound, the viability, T/C [17] was 73.6%, the viability, T/C [18] was 51.4% and the viability, T/C [19] was 135%. For the same compound, the viability, T/C [20] was 143%, the viability, T/C [21] was 147% and the viability, T/C [22] was 106%. It also gave a viability, T/C [23] of 61.3%, a viability, T/C [24] of 43.5% and a viability, T/C [25] of 151%. The viability, T/C [26] was 112%, the viability, T/C [27] was 108% and the viability, T/C [28] was 69.2%. It also gave a viability, T/C [29] of 25.2% and a viability, T/C [30] of 5.33%.

— PubChem BioAssay AID1918998 (Molecular Pharmacology Branch, DTP, NCI, 2023)
